Source: PubChem BioAssay (NCI)
≈ marks a conversion by molar mass, not a printed value.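 The compound was tested at five concentrations on cells cultured in 96-well plates, with a 48-hour exposure period. GI50 = concentration required for 50% inhibition of growth. Definition used: TGI = concentration required for complete inhibition of growth.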 Residues, ends and D or L forms follow the SMILES beside them. *: point of attachment. Boc = CC(C)(C)OC(=O)*

What was measured:
Experiment in all cases: growth of human tumour cells (NCI), 48 h
786-0 renal = test system: 786-0 renal
A498 renal = test system: A498 renal
A549 NSCLC = test system: A549 NSCLC
ACHN renal = test system: ACHN renal
BT-549 breast = test system: BT-549 breast
CCRF-CEM leukemia = test system: CCRF-CEM leukemia
DU-145 prostate = test system: DU-145 prostate
EKVX NSCLC = test system: EKVX NSCLC
HCC-2998 colon = test system: HCC-2998 colon
HCT-116 colon = test system: HCT-116 colon
HCT-15 colon = test system: HCT-15 colon
HL-60(TB) leukemia = test system: HL-60(TB) leukemia
HOP-92 NSCLC = test system: HOP-92 NSCLC
HS 578T breast = test system: HS 578T breast
HT29 colon = test system: HT29 colon
IGROV1 ovarian = test system: IGROV1 ovarian
K-562 leukemia = test system: K-562 leukemia
LOX IMVI melanoma = test system: LOX IMVI melanoma
M14 melanoma = test system: M14 melanoma
MALME-3M melanoma = test system: MALME-3M melanoma
MDA-MB-435 = test system: MDA-MB-435
MDA-N = test system: MDA-N
MOLT-4 leukemia = test system: MOLT-4 leukemia
NCI-H226 lung = test system: NCI-H226 lung
NCI-H23 lung = test system: NCI-H23 lung
NCI-H460 lung = test system: NCI-H460 lung
NCI/ADR-RES ovarian = test system: NCI/ADR-RES ovarian
OVCAR-4 ovarian = test system: OVCAR-4 ovarian
OVCAR-8 ovarian = test system: OVCAR-8 ovarian
PC-3 prostate = test system: PC-3 prostate
RPMI-8226 leukemia = test system: RPMI-8226 leukemia
RXF 393 renal = test system: RXF 393 renal
SF-268 CNS = test system: SF-268 CNS
SF-295 CNS = test system: SF-295 CNS
SF-539 CNS = test system: SF-539 CNS
SK-MEL-28 melanoma = test system: SK-MEL-28 melanoma
SK-MEL-5 melanoma = test system: SK-MEL-5 melanoma
SN12C renal = test system: SN12C renal
SNB-19 CNS = test system: SNB-19 CNS
SR leukemia = test system: SR leukemia
SW-620 colon = test system: SW-620 colon
TK-10 renal = test system: TK-10 renal
U251 CNS = test system: U251 CNS
UACC-257 melanoma = test system: UACC-257 melanoma
UO-31 renal = test system: UO-31 renal
COLO 205 colon = test system: COLO 205 colon
KM12 colon = test system: KM12 colon
MCF7 breast = test system: MCF7 breast
MDA-MB-231 breast = test system: MDA-MB-231 breast
NCI-H522 lung = test system: NCI-H522 lung
OVCAR-3 ovarian = test system: OVCAR-3 ovarian
SK-MEL-2 melanoma = test system: SK-MEL-2 melanoma
SK-OV-3 ovarian = test system: SK-OV-3 ovarian
SNB-75 CNS = test system: SNB-75 CNS
UACC-62 melanoma = test system: UACC-62 melanoma

`CC(C)(C)OC(=O)C1C(=O)NC(=O)CC1CC(OCc1ccccc1)C(COCc1ccccc1)OCc1ccccc1` (stereo not given) gave a TGI (786-0 renal) of over 100 µM, a TGI (A498 renal) of over 100 µM and a TGI (A549 NSCLC) of over 100 µM. The TGI (ACHN renal) was 70.4 µM, the TGI (BT-549 breast) was 32.8 µM and the TGI (CCRF-CEM leukemia) was over 100 µM. The TGI (DU-145 prostate) was 80.6 µM, the TGI (EKVX NSCLC) was over 100 µM and the TGI (HCC-2998 colon) was 50.4 µM. It also gave a TGI (HCT-116 colon) of over 100 µM, a TGI (HCT-15 colon) of 39.1 µM and a TGI (HL-60(TB) leukemia) of 4.34 µM. For the same compound, the TGI (HOP-92 NSCLC) was 46.2 µM, the TGI (HS 578T breast) was 66.6 µM and the TGI (HT29 colon) was 14.3 µM. For the same compound, the TGI (IGROV1 ovarian) was over 100 µM, the TGI (K-562 leukemia) was over 100 µM and the TGI (LOX IMVI melanoma) was 25.5 µM. It also gave a TGI (M14 melanoma) of over 100 µM, a TGI (MALME-3M melanoma) of 11.5 µM and a TGI (MDA-MB-435) of 20.7 µM. The TGI (MDA-N) was 79.1 µM, the TGI (MOLT-4 leukemia) was 13.1 µM and the TGI (NCI-H226 lung) was 93.3 µM. It also gave a TGI (NCI-H23 lung) of 45.7 µM, a TGI (NCI-H460 lung) of over 100 µM and a TGI (NCI/ADR-RES ovarian) of 82.8 µM. The TGI (OVCAR-4 ovarian) was over 100 µM, the TGI (OVCAR-8 ovarian) was over 100 µM and the TGI (PC-3 prostate) was 37.7 µM. For the same compound, the TGI (RPMI-8226 leukemia) was 15.8 µM, the TGI (RXF 393 renal) was 8.95 µM and the TGI (SF-268 CNS) was over 100 µM. The TGI (SF-295 CNS) was over 100 µM, the TGI (SF-539 CNS) was 39.8 µM and the TGI (SK-MEL-28 melanoma) was over 100 µM. For the same compound, the TGI (SK-MEL-5 melanoma) was 27.5 µM, the TGI (SN12C renal) was over 100 µM and the TGI (SNB-19 CNS) was over 100 µM. The TGI (SR leukemia) was 25 µM, the TGI (SW-620 colon) was over 100 µM and the TGI (TK-10 renal) was over 100 µM. The TGI (U251 CNS) was 24.8 µM, the TGI (UACC-257 melanoma) was 53.4 µM and the TGI (UO-31 renal) was 6.02 µM.
Work on `COC(=O)CNC(=O)C(Cc1ccccc1)NC(=O)C(Cc1ccccc1)NC(=O)OC(C)(C)C` (stereo not drawn) (Boc-Phe-Phe-Gly-OMe; configuration not given here) yielded a GI50 (A549 NSCLC) of 83.3 µg/mL (≈ 172 µM), a GI50 (BT-549 breast) of 27.8 µg/mL (≈ 57.5 µM) and a TGI (BT-549 breast) of 69.2 µg/mL. For the same compound, the GI50 (CCRF-CEM leukemia) was 21.1 µg/mL (≈ 43.6 µM), the TGI (CCRF-CEM leukemia) was 48.9 µg/mL and the GI50 (COLO 205 colon) was 13.5 µg/mL (≈ 27.9 µM). For the same compound, the TGI (COLO 205 colon) was 69.5 µg/mL (≈ 144 µM), the GI50 (DU-145 prostate) was 27.7 µg/mL (≈ 57.3 µM) and the GI50 (EKVX NSCLC) was 37.1 µg/mL (≈ 76.6 µM). The GI50 (HCC-2998 colon) was 18.9 µg/mL (≈ 39 µM), the TGI (HCC-2998 colon) was 40.2 µg/mL and the GI50 (HCT-116 colon) was 22.5 µg/mL (≈ 46.5 µM). The TGI (HCT-116 colon) was 53.3 µg/mL, the GI50 (HCT-15 colon) was 69.8 µg/mL (≈ 144 µM) and the GI50 (HL-60(TB) leukemia) was 26.5 µg/mL (≈ 54.7 µM). For the same compound, the TGI (HL-60(TB) leukemia) was 54.8 µg/mL, the GI50 (HOP-92 NSCLC) was 24.9 µg/mL (≈ 51.5 µM) and the TGI (HOP-92 NSCLC) was 43.7 µg/mL. The GI50 (HS 578T breast) was 32.8 µg/mL (≈ 67.8 µM), the GI50 (IGROV1 ovarian) was 41.6 µg/mL (≈ 86 µM) and the GI50 (K-562 leukemia) was 20.7 µg/mL (≈ 42.8 µM). It also gave a TGI (K-562 leukemia) of 41.2 µg/mL, a GI50 (KM12 colon) of 28 µg/mL (≈ 57.8 µM) and a TGI (KM12 colon) of 74.5 µg/mL (≈ 154 µM). The GI50 (LOX IMVI melanoma) was 20.8 µg/mL (≈ 43 µM), the TGI (LOX IMVI melanoma) was 50.4 µg/mL and the GI50 (M14 melanoma) was 27.9 µg/mL (≈ 57.6 µM). It also gave a TGI (M14 melanoma) of 65.9 µg/mL, a GI50 (MALME-3M melanoma) of 22.3 µg/mL (≈ 46.1 µM) and a TGI (MALME-3M melanoma) of 55 µg/mL. The GI50 (MCF7 breast) was 34.8 µg/mL (≈ 72 µM), the GI50 (MDA-MB-231 breast) was 48.5 µg/mL (≈ 100 µM) and the GI50 (MDA-MB-435) was 42.8 µg/mL (≈ 88.5 µM). The GI50 (MDA-N) was 32.9 µg/mL (≈ 68.1 µM), the GI50 (MOLT-4 leukemia) was 18.4 µg/mL (≈ 38.1 µM) and the TGI (MOLT-4 leukemia) was 38.8 µg/mL. It also gave a GI50 (NCI-H23 lung) of 35.7 µg/mL (≈ 73.8 µM), a GI50 (NCI-H460 lung) of 33.7 µg/mL (≈ 69.6 µM) and a GI50 (NCI-H522 lung) of 2.35 µg/mL (≈ 4.86 µM). The TGI (NCI-H522 lung) was 12.2 µg/mL (≈ 25.3 µM), the GI50 (OVCAR-3 ovarian) was 20 µg/mL (≈ 41.4 µM) and the TGI (OVCAR-3 ovarian) was 42.9 µg/mL (≈ 88.7 µM). The GI50 (OVCAR-8 ovarian) was 25.7 µg/mL (≈ 53.1 µM), the TGI (OVCAR-8 ovarian) was 74.2 µg/mL and the GI50 (RPMI-8226 leukemia) was 20.9 µg/mL (≈ 43.2 µM). For the same compound, the TGI (RPMI-8226 leukemia) was 49 µg/mL, the GI50 (SF-268 CNS) was 78.4 µg/mL (≈ 162 µM) and the GI50 (SF-295 CNS) was 51.1 µg/mL (≈ 106 µM). It also gave a GI50 (SF-539 CNS) of 21.4 µg/mL (≈ 44.3 µM), a TGI (SF-539 CNS) of 41 µg/mL and a GI50 (SK-MEL-2 melanoma) of 41.2 µg/mL (≈ 85.2 µM). It also gave a GI50 (SK-MEL-28 melanoma) of 18.7 µg/mL (≈ 38.7 µM), a TGI (SK-MEL-28 melanoma) of 38.2 µg/mL and a GI50 (SK-OV-3 ovarian) of 59.6 µg/mL (≈ 123 µM). It also gave a GI50 (SN12C renal) of 31.3 µg/mL (≈ 64.6 µM), a GI50 (SNB-75 CNS) of 30.1 µg/mL (≈ 62.2 µM) and a GI50 (SR leukemia) of 21.7 µg/mL (≈ 44.8 µM). For the same compound, the TGI (SR leukemia) was 46.4 µg/mL, the GI50 (SW-620 colon) was 49.1 µg/mL (≈ 102 µM) and the GI50 (TK-10 renal) was 37.6 µg/mL (≈ 77.8 µM). It also gave a GI50 (U251 CNS) of 32.4 µg/mL (≈ 67 µM), a TGI (U251 CNS) of 94.7 µg/mL and a GI50 (UACC-257 melanoma) of 32.4 µg/mL (≈ 67 µM). For the same compound, the GI50 (UACC-62 melanoma) was 15.6 µg/mL (≈ 32.2 µM) and the TGI (UACC-62 melanoma) was 28.9 µg/mL (≈ 59.8 µM).
